Data as given in ChEMBL document CHEMBL4699434, “Fenretinide binding to the lysosomal protein saposin D alters ceramide solubilization and hydrolysis” (RSC Med Chem, 2020).
The source made the active and inactive calls. The rule behind the calls is not given here.

Tests used:
[1] = molecular target: T1, Prosaposin (Homo sapiens) (UniProt P07602); assay: Binding affinity to human saposin D (1 to 81 residues) expressed in Escherichia coli assessed as decrease in BODIPY-TR labeled ceramide solubilization in sodium phosphate buffer measured after 30 mins by fluorescence assay
T1 sequence (whole entry): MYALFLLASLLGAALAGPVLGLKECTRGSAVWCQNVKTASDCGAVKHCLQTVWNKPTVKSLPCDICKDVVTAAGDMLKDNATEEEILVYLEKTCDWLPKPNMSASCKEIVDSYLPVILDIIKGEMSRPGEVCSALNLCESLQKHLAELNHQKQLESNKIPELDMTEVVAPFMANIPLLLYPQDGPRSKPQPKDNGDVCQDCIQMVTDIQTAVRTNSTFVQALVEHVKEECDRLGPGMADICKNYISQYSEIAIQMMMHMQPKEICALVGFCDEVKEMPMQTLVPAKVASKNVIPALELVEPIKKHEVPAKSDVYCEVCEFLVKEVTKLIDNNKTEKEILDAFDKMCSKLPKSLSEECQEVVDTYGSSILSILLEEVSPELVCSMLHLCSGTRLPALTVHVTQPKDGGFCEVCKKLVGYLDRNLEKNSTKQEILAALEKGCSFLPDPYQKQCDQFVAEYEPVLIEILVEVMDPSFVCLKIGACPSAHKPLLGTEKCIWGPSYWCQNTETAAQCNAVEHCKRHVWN

[2] = molecular target: T1, Prosaposin (Homo sapiens); assay: Binding affinity to human saposin D (1 to 81 residues) expressed in Escherichia coli assessed as association constant at equilibrium at 25 degree C by electronic absorption spectroscopy
Prosaposin [3] = molecular target: T2, Prosaposin (Homo sapiens, UniProt P07602); assay: Binding affinity to human saposin D (1 to 81 residues) expressed in Escherichia coli at 25 degree C by electronic absorption spectroscopy
T2 sequence (P07602 whole entry): T1 sequence (whole entry)

[4] = molecular target: T1, Prosaposin (Homo sapiens); assay: Binding affinity to human saposin D (1 to 81 residues) expressed in Escherichia coli assessed as association constant at equilibrium at 25 degree C by fluorescence quenching spectroscopy
Prosaposin [5] = molecular target: T2, Prosaposin; assay: Binding affinity to human saposin D (1 to 81 residues) expressed in Escherichia coli at 25 degree C by fluorescence quenching spectroscopy
[6] = molecular target: T1, Prosaposin (Homo sapiens); assay: Binding affinity to human saposin D (1 to 81 residues) expressed in Escherichia coli complexed with CerOH assessed as decrease in ceramide hydrolysis using ceramide as counter-substrate measured after 24 hrs in presence of acid ceramidase by fluorescence quenching spectroscopy
[7] = molecular target: T1, Prosaposin (Homo sapiens); assay: Binding affinity to human saposin D (1 to 81 residues) expressed in Escherichia coli complexed with CerPO4 assessed as decrease in ceramide hydrolysis using ceramide as counter-substrate preincubated the protein-ceramide complex for 30 mins measured after 24 hrs in presence of acid ceramidase by HPLC analysis
[8] = molecular target: T1, Prosaposin (Homo sapiens); assay: Binding affinity to human saposin D (1 to 81 residues) expressed in Escherichia coli assessed as inhibition of ceramide hydrolysis preincubated for 30 mins followed by ceramide addition measured after 72 hrs by HPLC analysis
[9] = molecular target: T3, Acid ceramidase (Homo sapiens) (UniProt Q13510); assay: Inhibition of acid ceramidase (unknown origin) assessed as inhibition of ceramide hydrolysis preincubated for 30 mins followed by ceramide addition measured after 72 hrs by HPLC analysis
T3 sequence (whole entry): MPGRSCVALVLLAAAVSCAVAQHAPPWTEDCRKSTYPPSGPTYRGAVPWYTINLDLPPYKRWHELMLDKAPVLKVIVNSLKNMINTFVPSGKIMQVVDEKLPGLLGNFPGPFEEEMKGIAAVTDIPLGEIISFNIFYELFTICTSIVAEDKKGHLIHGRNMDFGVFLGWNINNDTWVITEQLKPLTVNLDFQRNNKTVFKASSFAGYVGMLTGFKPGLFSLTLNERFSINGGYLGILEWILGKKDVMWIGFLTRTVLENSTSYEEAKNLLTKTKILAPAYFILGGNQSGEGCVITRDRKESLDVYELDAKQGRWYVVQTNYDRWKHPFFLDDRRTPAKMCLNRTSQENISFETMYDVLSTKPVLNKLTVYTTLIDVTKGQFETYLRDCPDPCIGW

For `CC1=C(/C=C/C(C)=C/C=C/C(C)=C/C(=O)Nc2ccc(O)cc2)C(C)(C)CCC1` [FENRETINIDE], the Activity [1] was “inactive”, the Ka [2] was 1.45 10^5/M and the Kd (Prosaposin [3]) was 6.9 µM. For the same compound, the Ka [4] was 1.45 10^5/M, the Kd (Prosaposin [5]) was 6.9 µM and the Activity [6] was “Active”. The Activity [7] was “Active”, the inhibition [8] was “Active” and the inhibition [9] was “Active”.
